The IC50 is the point on the concentration scale where inhibition reaches its midpoint.

This assay concerns the target Autotaxin (Homo sapiens (Human), UniProt Q13822). Briefly: Autotaxin LPC Cascade Assay. The class given is biochemical. The conditions noted are these: Autotaxin 5 nM, LPC 100 μM, choline oxidase/HRP/Ampliflu Red fluorescence read-out, 2% DMSO, RT; read-out: IC50 ATX Activity. Put shortly:
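Choline liberated from LPC by autotaxin during 1 h, after a 10-min RT compound preincubation, was converted through choline oxidase/HRP to a fluorescent Ampliflu Red product.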
Consider `CC(C)[C@@H](NC(=O)c1cc(C(F)(F)F)ccc1F)C(=O)N1CCC2(CC1)C(=O)N(C)C(=O)N2Cc1ccc2[nH]ncc2c1` [Example 98, (R)—N-(1-(1-((1H-Indazol-5-yl)methyl)-3-methyl-2,4-dioxo-1,3,8-triazaspiro[4.5]decan-8-yl)-3-methyl-1-oxobutan-2-yl)-2-fluoro-5-(trifluoromethyl)benzamide], for which the IC50 was below 500 nM.

For `CC(C)[C@@H](NC(=O)c1cc(C(F)(F)F)ccc1F)C(=O)N1CCC2(CC1)C(=O)N(C)C(=O)N2Cc1ccc(Cl)cc1` [Example 99, (R)—N-(1-(1-(4-Chlorobenzyl)-3-methyl-2,4-dioxo-1,3,8-triazaspiro[4.5]decan-8-yl)-3-methyl-1-oxobutan-2-yl)-2-fluoro-5-(trifluoromethyl)benzamide], the IC50 is below 500 nM.

As to `CC(C)[C@@H](NC(=O)c1cc(C(F)(F)F)ccc1F)C(=O)N1CCC2(CC1)C(=O)N(C)C(=O)N2Cc1ccc2nccnc2c1` [Example 100, (R)-2-Fluoro-N-(3-methyl-1-(3-methyl-2,4-dioxo-1-(quinoxalin-6-ylmethyl)-1,3,8-triazaspiro[4.5]decan-8-yl)-1-oxobutan-2-yl)-5-(trifluoromethyl)benzamide], the IC50 was below 500 nM.

Take `CC(C)[C@@H](NC(=O)c1cc(C(F)(F)F)ccc1F)C(=O)N1CCC2(CC1)C(=O)N(C)C(=O)N2Cc1cccc(C#N)c1` [Example 101, (R)—N-(1-(1-(3-Cyanobenzyl)-3-methyl-2,4-dioxo-1,3,8-triazaspiro[4.5]decan-8-yl)-3-methyl-1-oxobutan-2-yl)-2-fluoro-5-(trifluoromethyl)benzamide]: the 50% inhibitory concentration (IC50) is below 500 nM.

Turning to `CC(C)[C@@H](NC(=O)c1cc(C(F)(F)F)ccc1F)C(=O)N1CCC2(CC1)C(=O)N(C)C(=O)N2Cc1ccn2ccnc2c1` [Example 102, (R)-2-Fluoro-N-(1-(1-(imidazo[1,2-a]pyridin-7-ylmethyl)-3-methyl-2,4-dioxo-1,3,8-triazaspiro[4.5]decan-8-yl)-3-methyl-1-oxobutan-2-yl)-5-(trifluoromethyl)benzamide], the 50% inhibitory concentration (IC50) lay in the range of 500 to 1000 nM.

Regarding `CC(C)[C@@H](NC(=O)c1cc(C(F)(F)F)ccc1F)C(=O)N1CCC2(CC1)C(=O)N(C)C(=O)N2Cc1cccc(S(C)(=O)=O)c1` [Example 103, (R)-2-Fluoro-N-(3-methyl-1-(3-methyl-1-(3-(methylsulfonyl)benzyl)-2,4-dioxo-1,3,8-triazaspiro[4.5]decan-8-yl)-1-oxobutan-2-yl)-5-(trifluoromethyl)benzamide], the IC50 is 500 to 1000 nM.

As to `CC(C)[C@@H](NC(=O)c1cc(C(F)(F)F)ccc1F)C(=O)N1CCC2(CC1)C(=O)N(C)C(=O)N2Cc1cccc(Cl)c1` [Example 104, (R)—N-(1-(1-(3-Chlorobenzyl)-3-methyl-2,4-dioxo-1,3,8-triazaspiro[4.5]decan-8-yl)-3-methyl-1-oxobutan-2-yl)-2-fluoro-5-(trifluoromethyl)benzamide], the half-maximal inhibitory concentration (IC50) was below 500 nM.

With `CC(C)[C@@H](NC(=O)c1cc(C(F)(F)F)ccc1F)C(=O)N1CCC2(CC1)C(=O)N(C)C(=O)N2Cc1ccc2oc(=O)n(C)c2c1` [Example 105, (R)-2-Fluoro-N-(3-methyl-1-(3-methyl-1-((3-methyl-2-oxo-2,3-dihydrobenzo[d]oxazol-5-yl)methyl)-2,4-dioxo-1,3,8-triazaspiro[4.5]decan-8-yl)-1-oxobutan-2-yl)-5-(trifluoromethyl)benzamide], the IC50 was below 500 nM.

Turning to `Cc1nc2ccc(CN3C(=O)N(C)C(=O)C34CCN(C(=O)[C@H](NC(=O)c3cc(C(F)(F)F)ccc3F)C(C)C)CC4)cc2[nH]1` [Example 106, (R)-2-Fluoro-N-(3-methyl-1-(3-methyl-1-((2-methyl-1H-benzo[d]imidazol-6-yl)methyl)-2,4-dioxo-1,3,8-triazaspiro[4.5]decan-8-yl)-1-oxobutan-2-yl)-5-(trifluoromethyl)benzamide], the IC50 was at least 1000 nM.

Take `COc1ccc(F)c(CN2C(=O)N(C)C(=O)C23CCN(C(=O)[C@H](NC(=O)c2cc(C(F)(F)F)ccc2F)C(C)C)CC3)c1` [Example 107, (R)-2-Fluoro-N-(1-(1-(2-fluoro-5-methoxybenzyl)-3-methyl-2,4-dioxo-1,3,8-triazaspiro[4.5]decan-8-yl)-3-methyl-1-oxobutan-2-yl)-5-(trifluoromethyl)benzamide]: the half-maximal inhibitory concentration (IC50) was below 500 nM.

For the compound `COc1ccc(CN2C(=O)N(C)C(=O)C23CCN(C(=O)[C@H](NC(=O)c2cc(C(F)(F)F)ccc2F)C(C)C)CC3)c(F)c1` [Example 108, (R)-2-Fluoro-N-(1-(1-(2-fluoro-4-methoxybenzyl)-3-methyl-2,4-dioxo-1,3,8-triazaspiro[4.5]decan-8-yl)-3-methyl-1-oxobutan-2-yl)-5-(trifluoromethyl)benzamide], the half-inhibitory concentration (IC50) is below 500 nM.

Consider `CN1C(=O)N(Cc2ccc3nccnc3c2)C2(CCN(C(=O)[C@H](NC(=O)c3cc(C(F)(F)F)ccc3F)C3CC3)CC2)C1=O` [Example 109, (R)—N-(1-Cyclopropyl-2-(3-methyl-2,4-dioxo-1-(quinoxalin-6-ylmethyl)-1,3,8-triazaspiro[4.5]decan-8-yl)-2-oxoethyl)-2-fluoro-5-(trifluoromethyl)benzamide], for which the half-inhibitory concentration (IC50) was below 500 nM.

With `CN1C(=O)N(Cc2ccc3nccnc3c2)C2(CCN(C(=O)[C@H](NC(=O)c3cc(C(F)(F)F)ccc3F)C3CCC3)CC2)C1=O` [Example 110, (R)—N-(1-Cyclobutyl-2-(3-methyl-2,4-dioxo-1-(quinoxalin-6-ylmethyl)-1,3,8-triazaspiro[4.5]decan-8-yl)-2-oxoethyl)-2-fluoro-5-(trifluoromethyl)benzamide], the IC50 was below 500 nM.

As for `CC(C)[C@@H](NC(=O)c1cc(C(F)(F)F)ccc1F)C(=O)N1CCC2(CC1)C(=O)N(C)C(=O)N2Cc1ncccn1` [Example 111, (R)-2-Fluoro-N-(3-methyl-1-(3-methyl-2,4-dioxo-1-(pyrimidin-2-ylmethyl)-1,3,8-triazaspiro[4.5]decan-8-yl)-1-oxobutan-2-yl)-5-(trifluoromethyl)benzamide], the IC50 was at least 1000 nM.

Turning to `CN1C(=O)N(Cc2ccc3nccnc3c2)C2(CCN(C(=O)[C@H](NC(=O)c3cc(C(F)(F)F)ccc3F)C3CCCC3)CC2)C1=O` [Example 112, (R)—N-(1-Cyclopentyl-2-(3-methyl-2,4-dioxo-1-(quinoxalin-6-ylmethyl)-1,3,8-triazaspiro[4.5]decan-8-yl)-2-oxoethyl)-2-fluoro-5-(trifluoromethyl)benzamide], the half-maximal inhibitory concentration (IC50) was below 500 nM.

Consider `CC(C)[C@@H](NC(=O)c1cc(C(F)(F)F)ccc1F)C(=O)N1CCC2(CC1)C(=O)N(C)C(=O)N2Cc1ccnc(C#N)c1` [Example 113], for which the IC50 is at least 1000 nM.

Turning to `Cc1nc2cc(CN3C(=O)N(C)C(=O)C34CCN(C(=O)[C@H](NC(=O)c3cc(C(F)(F)F)ccc3F)C(C)C)CC4)ccn2n1` [Example 114, (R)-2-Fluoro-N-(3-methyl-1-(3-methyl-1-((2-methyl-[1,2,4]triazolo[1,5-a]pyridin-7-yl)methyl)-2,4-dioxo-1,3,8-triazaspiro[4.5]decan-8-yl)-1-oxobutan-2-yl)-5-(trifluoromethyl)benzamide], the IC50 was at least 1000 nM.

`CC(C)[C@@H](NC(=O)c1cc(C(F)(F)F)ccc1F)C(=O)N1CCC2(CC1)C(=O)N(C)C(=O)N2Cc1cnn(C)c1` [Example 115, (R)-2-Fluoro-N-(3-methyl-1-(3-methyl-1-((1-methyl-1H-pyrazol-4-yl)methyl)-2,4-dioxo-1,3,8-triazaspiro[4.5]decan-8-yl)-1-oxobutan-2-yl)-5-(trifluoromethyl)benzamide]: the IC50 is at least 1000 nM.

`Cc1nc2cc(CN3C(=O)N(C)C(=O)C34CCN(C(=O)[C@H](NC(=O)c3cc(C(F)(F)F)ccc3F)C(C)C)CC4)ccc2o1` [Example 116, (R)-2-Fluoro-N-(3-methyl-1-(3-methyl-1-((2-methylbenzo[d]oxazol-5-yl)methyl)-2,4-dioxo-1,3,8-triazaspiro[4.5]decan-8-yl)-1-oxobutan-2-yl)-5-(trifluoromethyl)benzamide]: the IC50 is below 500 nM.

In the case of `Cc1csc(CN2C(=O)N(C)C(=O)C23CCN(C(=O)[C@H](NC(=O)c2cc(C(F)(F)F)ccc2F)C(C)C)CC3)n1` [Example 117, (R)-2-Fluoro-N-(3-methyl-1-(3-methyl-1-((4-methylthiazol-2-yl)methyl)-2,4-dioxo-1,3,8-triazaspiro[4.5]decan-8-yl)-1-oxobutan-2-yl)-5-(trifluoromethyl)benzamide], the 50% inhibitory concentration (IC50) is at least 1000 nM.

Turning to `Cc1nc2ccc(CN3C(=O)N(C)C(=O)C34CCN(C(=O)[C@H](NC(=O)c3cc(C(F)(F)F)ccc3F)C(C)C)CC4)cc2o1` [Example 118, (R)-2-Fluoro-N-(3-methyl-1-(3-methyl-1-((2-methylbenzo[d]oxazol-6-yl)methyl)-2,4-dioxo-1,3,8-triazaspiro[4.5]decan-8-yl)-1-oxobutan-2-yl)-5-(trifluoromethyl)benzamide], the IC50 was below 500 nM.

With `COc1ccc(CN2C(=O)N(C)C(=O)C23CCN(C(=O)[C@H](NC(=O)c2cc(C(F)(F)F)ccc2F)C(C)C)CC3)c(Cl)c1` [Example 119, (R)—N-(1-(1-(2-Chloro-4-methoxybenzyl)-3-methyl-2,4-dioxo-1,3,8-triazaspiro[4.5]decan-8-yl)-3-methyl-1-oxobutan-2-yl)-2-fluoro-5-(trifluoromethyl)benzamide], the IC50 was below 500 nM.

With `CC(C)[C@@H](NC(=O)c1cc(C(F)(F)F)ccc1F)C(=O)N1CCC2(CC1)C(=O)N(C)C(=O)N2Cc1ccc(=O)n(C)c1` [Example 120, (R)-2-Fluoro-N-(3-methyl-1-(3-methyl-1-((1-methyl-6-oxo-1,6-dihydropyridin-3-yl)methyl)-2,4-dioxo-1,3,8-triazaspiro[4.5]decan-8-yl)-1-oxobutan-2-yl)-5-(trifluoromethyl)benzamide], the IC50 fell in the range of 500 to 1000 nM.

As for `CC(=O)N1CC(CN2C(=O)N(C)C(=O)C23CCN(C(=O)[C@H](NC(=O)c2cc(C(F)(F)F)ccc2F)C(C)C)CC3)C1` [Example 121, (R)—N-(1-(1-((1-Acetylazetidin-3-yl)methyl)-3-methyl-2,4-dioxo-1,3,8-triazaspiro[4.5]decan-8-yl)-3-methyl-1-oxobutan-2-yl)-2-fluoro-5-(trifluoromethyl)benzamide], the IC50 is at least 1000 nM.
